According to US20240368151A1, “NOVEL ERGOLINES AND METHODS OF TREATING MOOD DISORDERS” (priority 2021, published 2024):
Read-outs that look alike come from different tables or passages of the source.

What was measured:
[1] = target: 5-HT1A receptor (Homo sapiens (Human), UniProt P08908); assay: FLIPR Ca^2+ flux agonist assay at 5-HT1A; assay type: cell-based; conditions: CHO cells
Experimental: (§1) Functional Assays at 5-HT2A, 5-HT2B, and 5-HT1A. Agonist activity at 5-HT2A, 5-HT2B, and 5-HT1A receptors was determined using a FLIPR Ca^2+ flux assay at WuXi AppTec (Hong Kong) Limited according to their standard protocols. Briefly, stably transfected cells expressing the receptor of interest (HEK293 for 5-HT2A and 5-HT2B; CHO cells for 5-HT1A) were grown and plated in a 384 well plate and incubated at 37° C. and 5% CO2 overnight. A solution of 250 mM probenecid in 1 mL FLIPR assay buffer was prepared fresh. This was combined with a fluorescent dye (Fluo-4 Direct™) to make a final assay concentration of 2.5 mM. […] The fluorescent dye was then added to the assay plate along with assay buffer to a final volume of 40 μL. The cell plate was incubated for 50 min at 37° C. and 5% CO2 and placed into the FLIPR Tetra along with the compound plate. 10p L of references and compounds were then transferred from the compound plate into the cell plate and the fluorescent signal was read.

[2] = Metabolic stability in rat liver microsomes (RLM); assay type: in vitro ADME; conditions: for half-life at 1 μM: both sexes, rat, pooled rat liver microsomes, pH 7.4, NADPH
[3] = target: 5-HT2B receptor (Homo sapiens (Human), UniProt P41595); assay: FLIPR Ca^2+ flux agonist assay at 5-HT2B; assay type: cell-based; conditions: HEK293
Experimental: as §1

[4] = system: C57BL/6 mice; assay: Mouse head twitch response (HTR) assay; assay type: in vivo; conditions: mouse HTR, SC; for # HTR at Most Efficacious Dose / Emax (95% CI): 20 min observation; for Emax (95% CI): curve fit
Experimental: Agonists of the 5-HT2A receptor are well known to induce this effect in rodents and the potency of this HTR is correlated with hallucinogenic potency in humans.
Animals. Adult male C57BL/6 mice, aged 6-8 weeks (body weight 20-25 g) were used in this experiment. Animals were housed under controlled temperatures and 12-hour light/dark cycles (lights on between 07:00-19:00 h), with ad libitum food and water. This study was carried out in strict accordance with the requirements of the Committee for the Purpose of Control and Supervision of Experiments on Animals (CPCSEA), India. All efforts were made to minimize suffering.
Drugs and Drug Administration. Compound 1 was synthesized as described above. It was administered subcutaneously (SC) dissolved in saline vehicle at a volume of 10 mL/kg. Five doses were tested, with n=6 animals/group. Doses were calculated on the basis of the freebase.
Procedure. Mice were administered one dose of the drug and immediately placed into a small open field for behavioral observation. Animals were observed continuously for 20 mins and the number of head twitches (HTs) were counted by an observer blind to the treatment condition.
Statistical Analysis. The data points shown are the mean±standard error of the mean (SEM). Analysis was performed using GraphPad Prism 6. Curves were fit using a non-linear gaussian distribution to calculate ED50 and Emax values.
Additional disclosed compounds were tested in the mouse head twitch response (HTR) assay according to the procedure described in Example 34. […] Lastly, compounds with much larger benzyl and phenethyl substituents on the amine nitrogen (e.g., 10 and 11) were low efficacy in this assay, consistent with their lower maximal efficacy in the arrestin functional assay (see Example 32).

[5] = target: T1, 5-HT2A receptor (Homo sapiens (Human), UniProt P28223); assay type: cell-based; conditions: beta-arrestin recruitment
Experimental: The degree of arrestin bias varied substantially across the other compounds tested as well.
Arrestin Functional Assay at 5-HT2A. Recruitment of beta-arrestin was determined using a PathHunter assay at Eurofins DiscoverX (Fremont, CA) according to their standard protocols. PathHunter GPCR beta-arrestin assays take advantage of DiscoverX's proprietary Enzyme Fragment Complementation technology. The GPCR is fused in frame with a small enzyme donor fragment ProLink™ (PK) and co-expressed in cells stably expressing a fusion protein of beta-arrestin and the larger, N-terminal deletion mutant of beta-galactosidase. Activation of the GPCR (5-HT2A receptor in this case) stimulates binding of beta-arrestin to the PK-tagged GPCR and forces complementation of the two enzyme fragments, resulting in the formation of an active beta-galactosidase enzyme. This interaction leads to an increase in enzyme activity that can be measured using chemiluminescent PathHunter Detection Reagents. Briefly, PathHunter cells expressing 5-HT2A receptors were seeded in a volume of 20 μL into 384-well plates and incubated at 37° C. for the appropriate time prior to testing. […] Plates were then imaged on a microplate reader and the agonist activity was calculated using the following formula: % Activity=100%×(mean RLU of test sample−mean RLU of vehicle control)/(mean MAX control ligand−mean RLU of vehicle control), where RLU=relative light units.

[6] = Metabolic stability in mouse liver microsomes (MLM); assay type: in vitro ADME; conditions: NADPH; for half-life at 1 μM: mouse, pooled mouse liver microsomes, pH 7.4, MLM (CD-1)
Excerpt: MLM Stability Pooled MLM from CD-1 mice (BIOIVT M00501) were used.

[7] = target: T1, 5-HT2A receptor; assay type: cell-based; conditions: Ca^2+ flux, HEK293
Experimental: as §1

[8] = Metabolic stability in human liver microsomes (HLM); assay type: in vitro ADME; conditions: for half-life at 1 μM: both sexes, human, pooled human liver microsomes, pH 7.4, NADPH
Excerpt: HLM Stability. Pooled HLM from adult male and female donors (Corning 452117) were used.

[9] = target: human 5-HT2C receptor (Homo sapiens (Human), UniProt P28335); assay type: cell-based
Sequence of human 5-HT2C receptor (P28335 33-458 limits assumed): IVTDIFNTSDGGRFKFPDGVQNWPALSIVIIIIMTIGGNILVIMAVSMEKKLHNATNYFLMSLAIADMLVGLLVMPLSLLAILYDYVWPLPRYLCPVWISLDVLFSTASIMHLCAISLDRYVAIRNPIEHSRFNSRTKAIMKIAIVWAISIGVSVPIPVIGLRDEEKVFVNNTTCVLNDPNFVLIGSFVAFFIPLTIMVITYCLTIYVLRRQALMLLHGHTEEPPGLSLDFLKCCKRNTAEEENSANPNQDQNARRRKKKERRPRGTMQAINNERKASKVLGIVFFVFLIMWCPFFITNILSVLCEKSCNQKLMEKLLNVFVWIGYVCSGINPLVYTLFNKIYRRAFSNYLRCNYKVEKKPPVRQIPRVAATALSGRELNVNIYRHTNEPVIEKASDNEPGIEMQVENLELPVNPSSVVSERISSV

Sequence of 5-HT2B receptor (P41595 whole entry, looked up): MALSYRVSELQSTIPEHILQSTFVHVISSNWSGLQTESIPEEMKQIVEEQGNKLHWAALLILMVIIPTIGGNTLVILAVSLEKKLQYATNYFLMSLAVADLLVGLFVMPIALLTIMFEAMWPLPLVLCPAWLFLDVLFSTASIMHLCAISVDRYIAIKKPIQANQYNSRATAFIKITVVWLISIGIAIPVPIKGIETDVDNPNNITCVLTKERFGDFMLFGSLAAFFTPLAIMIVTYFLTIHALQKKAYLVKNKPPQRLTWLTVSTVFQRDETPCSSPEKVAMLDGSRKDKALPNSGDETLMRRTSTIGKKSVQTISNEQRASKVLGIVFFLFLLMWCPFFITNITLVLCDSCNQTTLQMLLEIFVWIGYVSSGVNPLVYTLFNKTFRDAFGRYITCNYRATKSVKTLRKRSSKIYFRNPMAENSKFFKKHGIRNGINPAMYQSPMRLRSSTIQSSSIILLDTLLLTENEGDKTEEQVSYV

SMILES	5-HT1A % Act @ Max Dose [1] [%]	half-life at 1 μM [2] [min]	5-HT2B % Act @ Max Dose [3] [%]	Most Efficacious Dose [4]	# HTR at Most Efficacious Dose [4]	Emax (95% CI) [4]	5-HT2A Arrestin % Act @ Max Dose [5] [%]	agonist type in the 5-HT2A arrestin recruitment assay, in words [5]	half-life at 1 μM [6] [min]	5-HT2A % Act @ Max Dose [7] [%]	half-life at 1 μM [8] [min]	5-HT2C % Act @ Max Dose ([9]; Ca^2+ flux) [%]	Clint ([2]; 1 μM, NADPH) [µL/min/mg]	t1/2 ([2]; 1 μM, NADPH) [min]	Clint ([6]; MLM (CD-1), 1 μM) [µL/min/mg]	t1/2 ([6]; MLM (CD-1), 1 μM) [min]	Clint ([8]; 1 μM, NADPH) [µL/min/mg]	t1/2 ([8]; 1 μM, NADPH) [min]	5-HT2C % Act @ Max Dose [9] [%]
CCC[C@@H](C)NC(=O)[C@@H]1C=C2c3cccc4[nH]cc(c34)C[C@H]2N(CCC)C1 [Compound 7, (6aR,9R)-N-((R)-pentan-2-yl)-7-propyl-4,6,6a,7,8,9-hexahydroindolo[4,3-fg]quinoline-9-carboxamide]	107.16	1.61	94.75	(1 mg/kg)	16.667	720.4	110.2	full agonists	0.541	94.52	1.65	114.78	–	–	–	–	–	–	–
CC[C@@H](C)NC(=O)[C@@H]1C=C2c3cccc4[nH]cc(c34)C[C@H]2N(C)C1 [Int8, (6aR,9R)-N-((R)-sec-butyl)-7-methyl-4,6,6a,7,8,9-hexahydroindolo[4,3-fg]quinoline-9-carboxamide]	90.25	99.5	17.7	(1 mg/kg)	13.5	14.34	46.06	partial agonists	39.9	96.25	64.9	98.245	–	–	–	–	–	–	–
CCC(CC)NC(=O)[C@@H]1C=C2c3cccc4[nH]cc(c34)C[C@H]2N(C)C1 [Int14, (6aR,9R)-7-methyl-N-(pentan-3-yl)-4,6,6a,7,8,9-hexahydroindolo[4,3-fg]quinoline-9-carboxamide]	102.46	38	9.84	(1 mg/kg)	10.5	21.63	44.377	partial agonists	6.07	93.33	17.6	99.149	–	–	–	–	–	–	–
CC[C@@H](C)NC(=O)[C@@H]1C=C2c3cccc4[nH]cc(c34)C[C@H]2N(CC)C1 [Compound 5]	107.87	–	84.77	(0.32 mg/kg)	17.667	15.22	105.72	full agonists	–	102.81	–	–	72.0	19.3	170.4	8.1	62.3	22.2	114.5
CCN(CC)C(=O)[C@H]1C=C2c3cccc4[nH]cc(c34)C[C@H]2N(CCCF)C1 [Compound 2a, (6aR,9S)-N,N-diethyl-7-(3-fluoropropyl)-4,6,6a,7,8,9-hexahydroindolo[4,3-fg]quinoline-9-carboxamide]	96.77	9.67	40.13	–	–	–	83.328	–	1.78	90.29	17	118.85	–	–	–	–	–	–	–
C=CCN1C[C@H](C(=O)N[C@H](C)CC)C=C2c3cccc4[nH]cc(c34)C[C@H]21 [Compound 8, (6aR,9R)-7-allyl-N-((R)-sec-butyl)-4,6,6a,7,8,9-hexahydroindolo[4,3-fg]quinoline-9-carboxamide]	116.41	7.7	91.56	(1 mg/kg)	15.75	12.03	112.42	full agonists	3.7	99.25	7.9	108.26	–	–	–	–	–	–	–
CCC[C@@H](C)NC(=O)[C@H]1C=C2c3cccc4[nH]cc(c34)C[C@H]2N(C)C1 [Int17a, (6aR,9S)-7-methyl-N-((R)-pentan-2-yl)-4,6,6a,7,8,9-hexahydroindolo[4,3-fg]quinoline-9-carboxamide]	88.52	1.96	5.63	–	–	–	43.729	–	1.58	63.31	4.58	112.06	–	–	–	–	–	–	–
CCC[C@@H](C)NC(=O)[C@@H]1C=C2c3cccc4[nH]cc(c34)C[C@H]2N(C)C1 [Int17, (6aR,9R)-7-methyl-N-((R)-pentan-2-yl)-4,6,6a,7,8,9-hexahydroindolo[4,3-fg]quinoline-9-carboxamide]	113.04	27.9	25.49	(0.32 mg/kg)	–	4.96	38.809	partial agonists	8.25	91.47	15.9	102.19	–	–	–	–	–	–	–
